≈ marks a conversion by molar mass, not a printed value. *1 amine or outer side, *2 acyl side, *3 side chain or, on linkers, in order; H or OH if unused. Where a SMILES comes first, the peptide text is derived from it. [ ]: non-standard residue; d: D form. The star is where a group is joined. X13 = C[C@H](CO[C@H](CC1CC2(CCC2)C1)[C@@H](C)C(=O)[*:2])N[*:1]; X2 = CCCCCC[C@@H](OC[C@@H](C)N[*:1])[C@@H](C)C(=O)[*:2]; X14 = CCCCCC[C@@H](OCCN[*:1])[C@@H](C)C(=O)[*:2]; Gly(cHept) = N[C@H](C(=O)O)C1CCCCCC1; aIle = CC[C@@H](C)[C@H](N)C(=O)O; NMeL = CN[C@@H](CC(C)C)C(=O)O; Chg = N[C@H](C(=O)O)C1CCCCC1; NMeNva = CCC[C@H](NC)C(=O)O; Propyl(3-NMe2) = CN(C)CCC*; Dap = NC[C@H](N)C(=O)O; X22 = C1CC(*)CCN1
What follows are compounds tested on Escherichia coli (E. coli) strain CFT073 ATCC 700928. Conditions: ATCC 700928, 22 h.
Format: cell-based
Description: In vitro antimicrobial activity of each compound was determined by measuring minimal inhibitor concentrations (MICs) using the broth micro-dilution technique as approved by the Clinical and Laboratory Standards Institute (CLSI) (Methods for Dilution Antimicrobial Susceptibility Tests for Bacteria that Grow Aerobically; Approved Standard—Eighth Edition. CLSI document M07-A8. Wayne, Pa.: Clinical and Laboratroy Standards; 2009). Antibacterial activity was measure against Escherichia coli (E. coli) strain CFT073 ATCC 700928, which is a clinically relevant Gram-negative strain. Cells were inoculated onto plates of Mueller Hinton Agar and grown at 37° C. for 16-18 hours. Inocula suspensions were prepared by scraping cells into 1 mL of testing media (Mueller Hinton II cation adjusted Broth supplemented with 0.002% v/v Tween-80) and diluting to a final OD600 nm of 0.01.
Test compounds were prepared in DMSO at a concentration of 100 uM The compounds were tested under several different dilution formats and the data are reported in Tables 6, 7 and 8. In protocol 1, the compound stocks were diluted into testing media at a concentration of 64 μg/ml and serial 2-fold dilutions were made in the same media, in 96-well U bottom microtiter dishes, for a total of 10 compound concentrations. In protocol 2, the compound stocks were diluted into testing media at a concentration of 4 μg/mL and serial 2-fold dilutions were made in the same media, in 96-well U bottom microtiter dishes, for a total of 10 compound concentrations. In protocol 3, compound stocks were diluted into testing media at a concentration of 0.5 μg/mL, with serial 2-fold dilutions conducted as described above. In protocol 4, compound stocks were diluted into testing media at a concentration of 0.13 μg/mL, with serial 2-fold dilutions conducted as described above. Inocula suspensions were added to the 2-fold serial dilutions of test compounds to a final density of OD OD600 nm of 0.0005 and incubated at 35° C. for 22 hours.

SMILES	MIC [µM]
CCCCCC[C@H]1OCCNC(=O)[C@H](CO)NC(=O)[C@H](CN)NC(=O)[C@H]([C@H](C)CC)NC(=O)[C@H](CC(C)C)N(C)C(=O)[C@@H]1C [Example 113, (6S,9S,12S,15S,18R,19R)-9-(aminomethyl)-19-hexyl-6-(hydroxymethyl)-15-isobutyl-16,18-dimethyl-12-[(1R)-1-methylpropyl]-1-oxa-4,7,10,13,16-pentazacyclononadecane-5,8,11,14,17-pentone] (cyclo([Dap]S[X14][NMeL][aIle]))	50 (≈ 31.3 µg/mL)
CCCCCC[C@H]1OC(=O)CNC(=O)[C@H]([C@H](C)O)NC(=O)[C@H](CN)NC(=O)[C@H](C2CCC(F)(F)CC2)NC(=O)[C@H](CC(C)C)N(C)C(=O)[C@@H]1C (single isomer, unassigned) [Example 52]	12 (≈ 8.6 µg/mL)
CC(C)C[C@H]1C(=O)N[C@@H](C2CCCCC2)C(=O)N[C@@H](CN)C(=O)N[C@@H]([C@H](C)O)C(=O)NCC(=O)O[C@H](CCC2CC3CCC2C3)[C@@H](C)C(=O)N1C (stereo partly drawn) [Example 60, (6S,9S,12S,15S,18R,19R)-9-(Aminomethyl)-19-(2-(bicyclo[2.2.1]heptan-2-yl)ethyl)-12-cyclohexyl-6-((S)-1-hydroxyethyl)-15-isobutyl-16,18-dimethyl-1-oxa-4,7,10,13,16-pentaazacyclononadecane-2,5,8,11,14,17-hexaone]	0.73 (≈ 0.525 µg/mL)
CCCC(CCC)C[C@H]1OC(=O)CNC(=O)[C@H]([C@H](C)O)NC(=O)[C@H](CO)NC(=O)[C@H]([C@H](C)CC)NC(=O)[C@H](CC(C)C)N(C)C(=O)[C@@H]1C [Example 42, (6S,9S,12S,15S,18R,19R)-6-[(1S)-1-hydroxyethyl]-9-(hydroxymethyl)-15-isobutyl-16,18-dimethyl-12-[(1R)-1-methylpropyl]-19-(2-propylpentyl)-1-oxa-4,7,10,13,16-pentazacyclononadecane-2,5,8,11,14,17-hexone]	50 (≈ 34.2 µg/mL)
CCCCCCCCCC[C@H]1OC(=O)CNC(=O)[C@H]([C@H](C)O)NC(=O)[C@H](CN)NC(=O)[C@H]([C@H](C)CC)NC(=O)[C@H](CC2CC2)N(C)C(=O)[C@@H]1C [Example 2, (6S,9S,12S,15S,18R,19R)-9-(aminomethyl)-12-((R)-sec-butyl)-15-(cyclopropylmethyl)-19-decyl-6-((S)-1-hydroxyethyl)-16,18-dimethyl-1-oxa-4,7,10,13,16-pentaazacyclononadecane-2,5,8,11,14,17-hexaone]	3.1 (≈ 2.2 µg/mL)
CCCCCC[C@H]1OC(=O)CNC(=O)[C@H]([C@H](C)O)NC(=O)[C@H](CN)NC(=O)[C@H](C2CCCCC2)NC(=O)[C@H](CCC)N(C)C(=O)[C@@H]1C [Example 101, (6S,9S,12S,15S,18R,19R)-9-(aminomethyl)-12-cyclohexyl-19-hexyl-16,18-dimethyl-15-propyl-6-[(1S)-1-hydroxyethyl]-1-oxa-4,7,10,13,16-pentazacyclononadecane-2,5,8,11,14,17-hexone]	4.1 (≈ 2.73 µg/mL)
CCC[C@H]1C(=O)N[C@@H](C2CCCCCC2)C(=O)N[C@@H](CN)C(=O)N[C@@H](COC2CCNCC2)C(=O)N[C@H](C)CO[C@H](CC2CC3(CCC3)C2)[C@@H](C)C(=O)N1C [Example 163, (3R,6S,9S,12S,15S,18R,19R)-9-(Aminomethyl)-12-cycloheptyl-3,16,18-trimethyl-6-((piperidin-4-yloxy)methyl)-15-propyl-19-(spiro[3.3]heptan-2-ylmethyl)-1-oxa-4,7,10,13,16-pentaazacyclononadecane-5,8,11,14,17-pentaone] (cyclo([Dap]S(X22)[X13][NMeNva][Gly(cHept)]))	4.4 (≈ 3.41 µg/mL)
CCCCCC[C@H]1OC(=O)CNC(=O)[C@H]([C@H](C)O)NC(=O)[C@H](CN)NC(=O)C(C2CC3CCC2C3)NC(=O)[C@H](CCC)N(C)C(=O)[C@@H]1C (single isomer, unassigned) [Example 69]	8.8 (≈ 5.97 µg/mL)
CCCCCCCCCC[C@H]1OC(=O)[C@@H](C)NC(=O)[C@H]([C@H](C)O)NC(=O)[C@H](CO)NC(=O)[C@H]([C@@H](C)CC)NC(=O)[C@H](CC(C)C)N(C)C(=O)[C@@H]1C [Example 4, (3R,6S,9S,12S,15S,18R,19R)-12-((S)-sec-butyl)-19-decyl-6-((S)-1-hydroxyethyl)-9-(hydroxymethyl)-15-isobutyl-3,16,18-trimethyl-1-oxa-4,7,10,13,16-pentaazacyclononadecane-2,5,8,11,14,17-hexaone]	13 (≈ 9.44 µg/mL)
CCC[C@H]1C(=O)N[C@@H](C2CCCCCC2)C(=O)N[C@@H](CN)C(=O)N[C@@H](COC2CC3(CC(N)C3)C2)C(=O)N[C@H](C)CO[C@H](CC2CC3(CCC3)C2)[C@@H](C)C(=O)N1C (single isomer, unassigned; stereoisomer 2) [Example 170]	0.78 (≈ 0.624 µg/mL)
CCCCCCCCCC[C@H]1OC(=O)CNC(=O)[C@H]([C@H](C)O)NC(=O)[C@H](CN)NC(=O)[C@H]([C@H](C)CC)NC(=O)[C@H](CCC)N(C)C(=O)[C@@H]1C [Example 14, (6S,9S,12S,15S,18R,19R)-9-(aminomethyl)-19-decyl-6-[(1S)-1-hydroxyethyl]-16,18-dimethyl-12-[(1R)-1-methylpropyl]-15-propyl-1-oxa-4,7,10,13,16-pentazacyclononadecane-2,5,8,11,14,17-hexone]	3.1 (≈ 2.16 µg/mL)
CCCCCCCCCC[C@H]1OC(=O)[C@@H](CC)NC(=O)[C@H]([C@H](C)O)NC(=O)[C@H](CN)NC(=O)[C@H]([C@H](C)CC)NC(=O)[C@H](CC(C)C)N(C)C(=O)[C@@H]1C [Example 93, (3R,6S,9S,12S,15S,18R,19R)-9-(aminomethyl)-19-decyl-3-ethyl-15-isobutyl-16,18-dimethyl-6-[(1S)-1-hydroxyethyl]-12-[(1R)-1-methylpropyl]-1-oxa-4,7,10,13,16-pentazacyclononadecane-2,5,8,11,14,17-hexone]	10 (≈ 7.39 µg/mL)
CCCCCCCCCC[C@H]1OC(=O)CNC(=O)[C@H]([C@H](C)O)NC(=O)[C@H](CN)NC(=O)[C@H](C2CCC(F)(F)CC2)NC(=O)[C@H](CC(C)C)N(C)C(=O)[C@@H]1C (single isomer, unassigned) [Example 53]	25 (≈ 19.3 µg/mL)
CCCCCC[C@H]1OC(=O)CNC(=O)[C@H](CCO)NC(=O)[C@H](CN)NC(=O)[C@H]([C@H](C)CC)NC(=O)[C@H](CC(C)C)N(C)C(=O)[C@@H]1C [Example 13, (6S,9S,12S,15S,18R,19R)-9-(aminomethyl)-19-hexyl-6-(2-hydroxyethyl)-15-isobutyl-16,18-dimethyl-12-[(1R)-1-methylpropyl]-1-oxa-4,7,10,13,16-pentazacyclononadecane-2,5,8,11,14,17-hexone]	50 (≈ 32.7 µg/mL)
CCCCCC[C@H]1OC[C@@H](C)NC(=O)[C@H](COCCCN(C)C)NC(=O)[C@H](CN)NC(=O)[C@H](C2CCCCC2)NC(=O)[C@H](CC(C)C)N(C)C(=O)[C@@H]1C [Example 78, (3R,6S,9S,12S,15S,18R,19R)-9-(Aminomethyl)-12-cyclohexyl-6-((3-(dimethylamino)propoxy)methyl)-19-hexyl-15-isobutyl-3,16,18-trimethyl-1-oxa-4,7,10,13,16-pentaazacyclononadecane-5,8,11,14,17-pentaone] (cyclo([Chg][Dap]S(Propyl(3-NMe2))[X2][NMeL]))	25 (≈ 18.8 µg/mL)
CC(C)C[C@H]1C(=O)N[C@@H](C2CCCCC2)C(=O)N[C@@H](CN)C(=O)N[C@@H]([C@H](C)O)C(=O)NCC(=O)O[C@H](CCC(C)(C)C)[C@@H](C)C(=O)N1C [Example 63, (6S,9S,12S,15S,18R,19R)-9-(aminomethyl)-12-cyclohexyl-19-(3,3-dimethylbutyl)-6-((S)-1-hydroxyethyl)-15-isobutyl-16,18-dimethyl-1-oxa-4,7,10,13,16-pentaazacyclononadecane-2,5,8,11,14,17-hexaone]	4.4 (≈ 3 µg/mL)
CCCCCCCCCC[C@H]1OC(=O)CNC(=O)[C@H](CO)NC(=O)[C@H](CO)NC(=O)[C@H]([C@@H](C)CC)NC(=O)[C@H](CCC)N(C)C(=O)[C@@H]1C [Example 36, (6S,9S,12S,15S,18R,19R)-19-decyl-6,9-bis(hydroxymethyl)-16,18-dimethyl-12-[(1S)-1-methylpropyl]-15-propyl-1-oxa-4,7,10,13,16-pentazacyclononadecane-2,5,8,11,14,17-hexone]	25 (≈ 17.1 µg/mL)
CCCCCCCCCC[C@H]1OC(=O)CNC(=O)[C@H]([C@H](C)O)NC(=O)[C@H](CN)NC(=O)[C@H]([C@H](C)CC)NC(=O)[C@H](CCC(C)C)N(C)C(=O)[C@@H]1C [Example 15, (6S,9S,12S,15S,18R,19R)-9-(aminomethyl)-19-decyl-6-[(1S)-1-hydroxyethyl]-15-isopentyl-16,18-dimethyl-12-[(1R)-1-methylpropyl]-1-oxa-4,7,10,13,16-pentazacyclononadecane-2,5,8,11,14,17-hexone]	6.3 (≈ 4.57 µg/mL)
